Assay [1] concerns the target Sphingosine 1-phosphate receptor 1 (Homo sapiens, UniProt P21453). Briefly: Cell-membrane dose response assay to identify antagonists of the Sphingosine 1-Phosphate receptor 1 (S1P1). Type of assay: functional.
The target in another assay is Galanin receptor type 2 (Homo sapiens, UniProt O43603). Description: Dose Response cell-based high-throughput screening assay to identify antagonists of galanin receptor 2 (GALR2). [Related pubchem assays: 828, 866 ]. Type of assay: functional.
For assay [2], the target named is Bifunctional protein GlmU (Mycobacterium tuberculosis, UniProt P9WMN3). Description: Inhibitors of Mycobacterial Glucosamine-1-phosphate acetyl transferase (GlmU). Secondary screen. On the set-up: species or system Mycobacterium tuberculosis H37Rv.
Assay [3] is described as follows: Luminescence Cell-Based Dose Confirmation HTS to Identify Activators of 5'UTR Stem-Loop Driven Alpha-Synuclein mRNA Translation in H4 Neuroglioblastoma Cells. [Related pubchem assays: 1829 (Project Summary), 1814 (Primary HTS)]. Format: functional.
A short description of assay [4]: Luminescence Cell-Based Dose Response HTS to Identify Activators of Luciferase Translation or Activity in H4 […] Cells. [Related pubchem assays: 1829 (Project Summary), 1814 (Primary HTS)]. Type of assay: functional.
Assay [5] has as its target Heat shock protein HSP 90-alpha (Homo sapiens, UniProt P07900). Briefly: Luminescence-based dose response biochemical high throughput screening assay for inhibitors of the Heat Shock Protein 90 (HSP90). [Related pubchem assays: 1831 (Summary AID.), 1846 (Confirmation screen.), 1789 (Primary screen.)].
In the next assay the test system is H4. Briefly: Luminescence Cell-Based Dose Response HTS to Identify Activators of 5'UTR Stem-Loop Driven Prion Protein mRNA Translation in H4 Neuroglioblastoma Cells. [Related pubchem assays: 1829 (Project Summary), 1814 (Primary HTS)]. Format: functional. Conditions: Homo sapiens.
The target in assay [6] is T1, Mannose-6-phosphate isomerase (Homo sapiens, UniProt P34949).
T1 sequence (P34949 whole entry): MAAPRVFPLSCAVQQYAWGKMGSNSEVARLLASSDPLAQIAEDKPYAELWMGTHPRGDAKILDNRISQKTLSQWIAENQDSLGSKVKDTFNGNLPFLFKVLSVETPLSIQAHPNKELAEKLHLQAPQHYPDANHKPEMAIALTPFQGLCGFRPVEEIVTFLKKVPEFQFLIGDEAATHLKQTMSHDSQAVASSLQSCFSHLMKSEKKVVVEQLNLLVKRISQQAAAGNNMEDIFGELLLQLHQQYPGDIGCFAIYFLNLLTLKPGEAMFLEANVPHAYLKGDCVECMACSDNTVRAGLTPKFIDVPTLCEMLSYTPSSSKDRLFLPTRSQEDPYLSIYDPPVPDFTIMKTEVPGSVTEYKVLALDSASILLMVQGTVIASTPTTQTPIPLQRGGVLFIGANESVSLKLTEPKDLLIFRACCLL
Description: inhibitors of human PMI, primary screen, biochemical, fluorescence intensity, coupled assay (AID 1209).

The target of assay [7] is Voltage-gated inwardly rectifying potassium channel KCNH2 (Homo sapiens, UniProt Q12809). Briefly: hERG protection from proarrhythmic block, potency, dose response, cell-based, thallium flux (AID 2121). Format: ADME. (In general: The hERG channel carries a current that helps repolarise heart muscle cells.)
Assay [8] deals with Luciferin 4-monooxygenase (Photinus pyralis, UniProt P08659). Briefly: firefly luciferase enzyme inhibitors, dose response, biochemical, luminescence (AID 1891).
The nature of assay [9]: Luminescence Cell-Based Dose Confirmation HTS to Identify Inhibitors of Platelet Dense Granule Release. [Related pubchem assays: 1663 (Primary HTS), 1678 (Summary of Project)]. Format: functional.
A short description of assay [10]: Fluorescence Cell-Based Dose Response to Identify Inhibitors of Thrombin Receptor-Activating Peptide SFLLRN-Mediated P-Selectin Induction on Platelets. [Related pubchem assays: 1663 (Primary HTS), 1889 (retest at dose ), 1891 (counterscreen), 1678 (Project Summary)]. Type of assay: functional.
Assay [11] can be described thus: M. tuberculosis growth inhibition, HTS (AID 449762). Format: functional.
The next assay concerns the target T2, Protein skinhead-1 (Caenorhabditis elegans, UniProt P34707).
T2 sequence (P34707 whole entry): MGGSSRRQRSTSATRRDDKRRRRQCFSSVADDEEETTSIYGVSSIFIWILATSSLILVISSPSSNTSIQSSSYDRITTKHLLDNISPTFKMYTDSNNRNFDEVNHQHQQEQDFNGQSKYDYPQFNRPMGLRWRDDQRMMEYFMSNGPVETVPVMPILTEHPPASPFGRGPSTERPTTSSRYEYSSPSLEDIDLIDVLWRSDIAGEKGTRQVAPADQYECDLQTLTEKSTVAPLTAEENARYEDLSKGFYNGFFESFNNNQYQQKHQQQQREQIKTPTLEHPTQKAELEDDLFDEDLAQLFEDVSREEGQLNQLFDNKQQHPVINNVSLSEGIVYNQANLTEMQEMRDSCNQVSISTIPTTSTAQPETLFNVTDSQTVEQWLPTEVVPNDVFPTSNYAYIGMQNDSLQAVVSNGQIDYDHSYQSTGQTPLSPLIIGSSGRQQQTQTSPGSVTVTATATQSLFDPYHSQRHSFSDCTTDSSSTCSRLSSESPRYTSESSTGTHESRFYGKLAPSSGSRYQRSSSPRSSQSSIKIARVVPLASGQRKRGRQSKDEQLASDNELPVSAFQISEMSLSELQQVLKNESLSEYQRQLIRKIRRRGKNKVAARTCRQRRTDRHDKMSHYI
Type of assay: functional.

For assay [12], the target named is 5-hydroxytryptamine receptor 1A (Homo sapiens, UniProt P08908). Format: functional.
The target of assay [13] is T3, Neuropeptide Y receptor type 1 (Homo sapiens, UniProt P25929).
T3 sequence (P25929 whole entry): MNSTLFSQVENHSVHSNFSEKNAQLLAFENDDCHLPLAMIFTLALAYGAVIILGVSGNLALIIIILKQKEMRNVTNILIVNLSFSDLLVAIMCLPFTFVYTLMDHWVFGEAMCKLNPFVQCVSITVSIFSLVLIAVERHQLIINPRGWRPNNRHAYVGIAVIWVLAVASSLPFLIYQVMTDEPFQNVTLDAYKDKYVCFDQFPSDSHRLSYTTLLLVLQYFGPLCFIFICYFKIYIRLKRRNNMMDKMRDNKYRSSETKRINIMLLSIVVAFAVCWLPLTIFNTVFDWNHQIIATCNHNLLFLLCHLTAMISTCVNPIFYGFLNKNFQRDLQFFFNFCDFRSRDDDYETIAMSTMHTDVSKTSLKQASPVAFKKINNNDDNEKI
Description: NPY-Y1 receptor antagonist potency, dose response, cell-based (AID 1277). Format: functional.

The target of assay [14] is T4, Neuropeptide Y receptor type 2 (Homo sapiens, UniProt P49146).
T4 sequence (P49146 whole entry): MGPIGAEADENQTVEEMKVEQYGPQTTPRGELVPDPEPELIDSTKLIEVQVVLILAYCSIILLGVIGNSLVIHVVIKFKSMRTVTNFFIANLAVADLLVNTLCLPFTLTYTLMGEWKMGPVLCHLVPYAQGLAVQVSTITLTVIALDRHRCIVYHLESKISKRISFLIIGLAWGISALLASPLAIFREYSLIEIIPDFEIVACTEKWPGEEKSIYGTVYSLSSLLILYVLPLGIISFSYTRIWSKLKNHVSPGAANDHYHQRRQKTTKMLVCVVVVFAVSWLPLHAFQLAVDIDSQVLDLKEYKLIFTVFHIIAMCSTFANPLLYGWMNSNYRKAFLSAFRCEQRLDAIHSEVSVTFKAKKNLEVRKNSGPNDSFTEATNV
Briefly: NPY-Y2 antagonist potency, selectivity check, dose response, counter-screen for NPY-Y1 antagonist project, cell-based (AID 1278). Type of assay: functional.

The nature of assay [15]: Shn3 3'UTR reporter inhibitors, dose response, cell-based, Clone20 osteoblasts, firefly luciferase, cherry-picked (AID 624132).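 Further: firefly luciferase luminescence from reporter carrying the Shn3 3'UTR in osteoblasts.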 Format: functional.
Assay [16] is described as follows: control 3'UTR Renilla luciferase suppression, dose response, counter-screen for Shn3 inhibitor project, cell-based, Clone20-Shn3RL, cherry-picked (AID 624133). Type of assay: functional.
The target of the next assay is Melanocortin receptor 4 (Homo sapiens, UniProt P32245). Briefly: MC4R antagonist potency on cAMP, dose response, cell-based, TR-FRET, biased antagonists (AID 602298).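 Further: antagonist potency against agonist-stimulated cAMP production.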 Type of assay: functional.
Assay [17] is described as follows: A549 cell cytotoxicity, dose response, CellTiter-Glo luminescence, dry powder, set 17 (AID 1117284). Format: functional, cell-based.
The nature of assay [18]: HepG2 cell cytotoxicity, dose response, cytotoxicity control for Shn3 inhibitor project, CellTiter-Glo, cherry-picked (AID 624134). Type of assay: functional, cell-based. (In ATP-based viability assays light output follows the ATP content of the culture.)
Assay [19] can be described thus: nonselective inhibitors of cellular cAMP signaling, dose response, counter-screen for MC4R biased antagonist project, cell-based, TR-FRET cAMP detection (AID 602305).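 Further: U2OS cells stimulated with forskolin near its EC80 as the cAMP inducer; potency is for inhibition of forskolin-stimulated cAMP signaling.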 Format: functional. Background: The purpose of a counterscreen is to sort out artefacts and off-target activity.
A short description of assay [20]: A549 cell cytotoxicity, dose response, cytotoxicity control, 24 h, CellTiter-Glo luminescence, cherry-picks (AID 1053115). Conditions: A549, 24 h. Format: functional, cell-based.
In another assay the target is Paired box protein Pax-8 (Homo sapiens, UniProt Q06710). Description: inhibitors of PAX8-driven TPO luciferase reporter, dose response, RMG-I cells, cherry-pick (AID 687027).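 Further: luciferase reporter driven by Pax8 target thyroperoxidase promoter measured by SteadyGlo luminescence.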 Type of assay: functional, cell-based.
A short description of assay [21]: inhibitors of firefly luciferase expression or activity, dose response, H4 neuroglioma cells, luminescence (AID 1990). Format: functional, cell-based.
The next assay has as its system Vero. Briefly: host cell cytotoxicity of antiviral hits, dose response, cytotoxicity control for West Nile virus antiviral project, secondary assay (AID 1650). Conditions: Chlorocebus sabaeus. Type of assay: functional.
Assay [22] in a line: HEp-2 cell cytotoxicity, dose response, cytotoxicity control for RSV inhibitor project, HTS (AID 2410). Type of assay: functional. Conditions: human respiratory syncytial virus.
Assay [23] in a line: inhibitors of SNCA 5'UTR-driven reporter translation, confirmation, H4 neuroglioma cells, luminescence (AID 1988). Type of assay: functional, cell-based.
The nature of assay [24]: Luminescence Cell-Based Dose Response HTS to Identify Inhibitors of 5'UTR Stem-Loop Driven Prion Protein mRNA Translation in H4 Neuroglioblastoma Cells. [Related pubchem assays: 1827 (Project Summary), 1813 (Primary HTS)]. Format: functional.

This is an account of results in ChEMBL document CHEMBL1201862, “PubChem BioAssay data set” (2004).

Active and inactive are the calls of the source.

Chain of Galanin receptor type 2 (O43603 whole entry): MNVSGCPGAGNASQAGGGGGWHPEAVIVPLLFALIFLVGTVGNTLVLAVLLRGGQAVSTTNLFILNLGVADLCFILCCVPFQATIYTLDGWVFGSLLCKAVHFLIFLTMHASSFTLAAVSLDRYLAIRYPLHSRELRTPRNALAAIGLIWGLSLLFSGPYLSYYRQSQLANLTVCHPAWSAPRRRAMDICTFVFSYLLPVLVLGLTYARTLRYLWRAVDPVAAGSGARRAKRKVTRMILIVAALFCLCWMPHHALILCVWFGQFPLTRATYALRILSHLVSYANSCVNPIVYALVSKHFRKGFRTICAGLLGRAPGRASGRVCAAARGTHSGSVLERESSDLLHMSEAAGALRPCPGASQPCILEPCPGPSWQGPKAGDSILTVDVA
Chain of Luciferin 4-monooxygenase (P08659 whole entry): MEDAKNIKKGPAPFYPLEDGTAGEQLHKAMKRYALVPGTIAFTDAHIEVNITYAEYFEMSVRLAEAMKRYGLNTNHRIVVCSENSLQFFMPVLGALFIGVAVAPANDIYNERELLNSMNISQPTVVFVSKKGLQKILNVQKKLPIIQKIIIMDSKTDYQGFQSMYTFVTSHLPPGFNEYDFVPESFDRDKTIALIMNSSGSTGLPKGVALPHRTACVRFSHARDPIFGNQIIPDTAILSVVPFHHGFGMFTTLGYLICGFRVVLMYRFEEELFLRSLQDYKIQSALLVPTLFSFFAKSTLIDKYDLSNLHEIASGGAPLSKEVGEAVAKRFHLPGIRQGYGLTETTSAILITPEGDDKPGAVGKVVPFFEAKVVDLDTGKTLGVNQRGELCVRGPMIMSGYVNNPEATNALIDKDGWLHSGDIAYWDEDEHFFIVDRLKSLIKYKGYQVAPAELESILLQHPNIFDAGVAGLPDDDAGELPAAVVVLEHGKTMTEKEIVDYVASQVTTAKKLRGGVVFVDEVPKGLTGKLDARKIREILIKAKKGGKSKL
Chain of Voltage-gated inwardly rectifying potassium channel KCNH2 (Q12809 whole entry): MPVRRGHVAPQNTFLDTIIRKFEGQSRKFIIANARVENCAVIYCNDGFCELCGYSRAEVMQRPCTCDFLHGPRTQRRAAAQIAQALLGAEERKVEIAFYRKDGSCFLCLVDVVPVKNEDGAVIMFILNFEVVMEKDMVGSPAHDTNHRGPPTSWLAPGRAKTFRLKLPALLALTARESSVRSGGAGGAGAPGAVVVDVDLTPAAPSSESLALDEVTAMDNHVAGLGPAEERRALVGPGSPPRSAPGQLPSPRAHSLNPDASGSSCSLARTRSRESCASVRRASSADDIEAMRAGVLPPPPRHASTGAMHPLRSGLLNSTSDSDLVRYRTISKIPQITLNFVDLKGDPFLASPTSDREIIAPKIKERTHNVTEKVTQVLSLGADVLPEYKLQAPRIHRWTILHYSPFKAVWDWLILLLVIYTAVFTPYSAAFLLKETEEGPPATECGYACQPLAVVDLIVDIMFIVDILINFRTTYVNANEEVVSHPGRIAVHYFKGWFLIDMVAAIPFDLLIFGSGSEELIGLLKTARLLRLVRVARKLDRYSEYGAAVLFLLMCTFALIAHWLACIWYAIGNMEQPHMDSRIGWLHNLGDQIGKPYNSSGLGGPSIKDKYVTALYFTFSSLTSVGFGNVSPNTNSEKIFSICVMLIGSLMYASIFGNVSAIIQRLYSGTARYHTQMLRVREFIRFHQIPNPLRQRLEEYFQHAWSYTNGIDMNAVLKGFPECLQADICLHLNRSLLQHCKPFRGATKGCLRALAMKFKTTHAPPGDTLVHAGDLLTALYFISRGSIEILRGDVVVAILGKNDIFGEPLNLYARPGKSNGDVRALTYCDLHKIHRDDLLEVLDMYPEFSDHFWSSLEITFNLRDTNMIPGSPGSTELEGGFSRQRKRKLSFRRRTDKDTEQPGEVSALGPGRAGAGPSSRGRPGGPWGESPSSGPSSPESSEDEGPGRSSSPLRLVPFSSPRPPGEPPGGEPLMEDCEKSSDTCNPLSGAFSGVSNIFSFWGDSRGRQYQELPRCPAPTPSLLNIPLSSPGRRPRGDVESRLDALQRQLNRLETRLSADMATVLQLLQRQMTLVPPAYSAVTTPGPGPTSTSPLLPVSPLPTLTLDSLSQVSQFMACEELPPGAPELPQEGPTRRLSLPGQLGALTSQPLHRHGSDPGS
Chain of Paired box protein Pax-8 (Q06710 whole entry): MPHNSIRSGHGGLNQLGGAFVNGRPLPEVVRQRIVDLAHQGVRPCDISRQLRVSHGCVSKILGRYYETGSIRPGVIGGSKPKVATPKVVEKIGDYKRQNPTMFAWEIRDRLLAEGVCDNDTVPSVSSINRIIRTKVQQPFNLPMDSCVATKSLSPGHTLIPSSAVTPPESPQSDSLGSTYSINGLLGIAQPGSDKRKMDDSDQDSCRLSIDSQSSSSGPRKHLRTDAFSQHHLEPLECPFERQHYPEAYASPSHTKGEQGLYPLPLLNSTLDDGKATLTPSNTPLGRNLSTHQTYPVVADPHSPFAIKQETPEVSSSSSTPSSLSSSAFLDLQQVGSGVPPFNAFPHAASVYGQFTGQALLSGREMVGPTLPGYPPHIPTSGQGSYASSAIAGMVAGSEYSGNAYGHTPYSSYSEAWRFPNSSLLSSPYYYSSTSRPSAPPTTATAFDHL
Chain of 5-hydroxytryptamine receptor 1A (P08908 whole entry): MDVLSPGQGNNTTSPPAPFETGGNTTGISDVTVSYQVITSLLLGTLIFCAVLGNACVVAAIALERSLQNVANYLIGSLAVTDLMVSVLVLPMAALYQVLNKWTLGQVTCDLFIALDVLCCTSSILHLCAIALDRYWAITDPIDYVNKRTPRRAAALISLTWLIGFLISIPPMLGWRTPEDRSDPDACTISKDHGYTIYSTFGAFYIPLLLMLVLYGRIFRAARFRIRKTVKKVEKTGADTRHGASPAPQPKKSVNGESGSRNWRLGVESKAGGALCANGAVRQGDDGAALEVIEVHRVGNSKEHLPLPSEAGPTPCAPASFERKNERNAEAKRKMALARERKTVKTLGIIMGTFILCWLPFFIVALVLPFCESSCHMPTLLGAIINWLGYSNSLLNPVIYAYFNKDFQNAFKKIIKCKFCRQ
Chain of Sphingosine 1-phosphate receptor 1 (P21453 whole entry): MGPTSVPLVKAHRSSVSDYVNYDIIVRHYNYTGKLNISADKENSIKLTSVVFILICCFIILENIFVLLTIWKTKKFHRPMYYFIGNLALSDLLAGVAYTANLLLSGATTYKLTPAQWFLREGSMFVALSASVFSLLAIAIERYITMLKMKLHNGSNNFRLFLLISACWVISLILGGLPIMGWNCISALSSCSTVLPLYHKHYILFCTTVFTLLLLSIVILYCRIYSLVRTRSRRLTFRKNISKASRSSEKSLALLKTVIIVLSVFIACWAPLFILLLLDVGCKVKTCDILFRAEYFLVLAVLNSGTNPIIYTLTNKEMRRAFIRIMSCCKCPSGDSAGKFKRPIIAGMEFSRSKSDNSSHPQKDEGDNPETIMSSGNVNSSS
Chain of Melanocortin receptor 4 (P32245 whole entry): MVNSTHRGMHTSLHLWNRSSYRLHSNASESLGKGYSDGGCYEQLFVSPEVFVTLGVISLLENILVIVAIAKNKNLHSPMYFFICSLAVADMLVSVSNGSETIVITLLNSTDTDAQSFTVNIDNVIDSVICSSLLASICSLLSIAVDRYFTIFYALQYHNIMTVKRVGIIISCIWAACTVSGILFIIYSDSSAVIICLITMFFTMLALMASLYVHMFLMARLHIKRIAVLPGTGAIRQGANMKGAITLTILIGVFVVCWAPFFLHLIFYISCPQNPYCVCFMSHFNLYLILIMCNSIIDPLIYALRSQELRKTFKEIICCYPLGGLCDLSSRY
Chain of Bifunctional protein GlmU (P9WMN3 whole entry): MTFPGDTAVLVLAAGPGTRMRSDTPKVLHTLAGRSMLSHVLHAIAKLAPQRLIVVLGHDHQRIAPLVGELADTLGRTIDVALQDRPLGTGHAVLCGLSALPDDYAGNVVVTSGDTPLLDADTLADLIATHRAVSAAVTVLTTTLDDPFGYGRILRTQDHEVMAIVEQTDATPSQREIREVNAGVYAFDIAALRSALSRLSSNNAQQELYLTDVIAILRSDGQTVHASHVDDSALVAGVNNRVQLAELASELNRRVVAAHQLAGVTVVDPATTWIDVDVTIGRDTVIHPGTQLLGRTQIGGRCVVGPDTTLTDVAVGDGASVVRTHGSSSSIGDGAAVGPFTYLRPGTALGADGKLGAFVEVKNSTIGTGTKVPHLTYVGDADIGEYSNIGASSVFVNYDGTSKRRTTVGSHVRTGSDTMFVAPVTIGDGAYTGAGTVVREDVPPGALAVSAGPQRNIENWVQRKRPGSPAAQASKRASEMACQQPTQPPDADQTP

The Ki is a dissociation constant, usually derived from enzyme kinetics or from competition with a known ligand. For `CCCCCCc1cccc(NC(=O)[C@H](N)CCP(=O)(O)O)c1`, the inhibition constant Ki in assay [1] was 4.63 µM (active).

As usually defined, the IC50 is the concentration at which inhibition is half-maximal. Turning to `CCn1c2ccc(C)cc2c2nc3cc(C(=O)O)ccc3nc21`, the 50% inhibitory concentration (IC50) is > 42 µM (not active) against Galanin receptor type 2 and 191 µM (active) in [2].

For orientation: EC50 means the concentration needed to bring the measured effect to its halfway point. Turning to `Cc1nc(NC(=O)c2cccc(Cl)c2)sc1C(=O)N1CCCCC1`, the EC50 in [3] was 12.2 µM (active); in assay [4], 14.2 µM (active); with H4 it was 20.1 µM (active). The half-maximal inhibitory concentration (IC50) in assay [5] is 6.4 µM (active).

Take `CC1(C(=O)CSc2nc[nH]n2)CCC(=O)O1` (stereo not given): the IC50 in assay [6] is given as > 50 µM (not active).

For the compound `CC(C)CNC(=S)NC(=O)c1ccc(Cl)cc1`, the EC50 in [7] is 6.61 µM (active).

Turning to `O=C(Oc1ccc(Cl)cc1)c1ccc(COC(=O)c2cnccn2)cc1`, the EC50 in [8] is > 112 µM (not active); in assay [9] it was 7.27 µM (active); in assay [10], > 100 µM (not active).

Regarding `O=C1c2ccccc2C(=O)N1Nc1ccccc1`, in [11], the IC50 was > 100 µM (active).

Turning to `O=C(COC(=O)CCC1CCCC1)Nc1ccc(Cl)cn1`, the IC50 on Protein skinhead-1 was > 100 µM (inactive). In addition, the EC50 in assay [12] was > 50 µM (not active).

As to `Cc1ccc(C)c(SCc2noc(C(=O)NCC3CCCO3)c2C(=O)O)c1` (stereo not given), the IC50 in assay [13] is > 35 µM (not active); in assay [14], 26.4 µM (not active).

As usually defined, the AC50 is the midpoint of the concentration-response curve, whichever way the signal moves. With `C[C@H](O)C#Cc1ccc2c(c1)O[C@@H](CN(C)Cc1ccc(-c3ccccc3)cc1)[C@H](C)CN([C@@H](C)CO)S2(=O)=O`, the AC50 was 10.3 µM (active) in assay [15]; 27.6 µM (active) in assay [16]; 28.3 µM (active) in assay [17]; 19.4 µM (active) in assay [18]; 42.8 µM (active) in assay [20]; 6.73 µM (active) on Paired box protein Pax-8. In addition, the IC50 (on Melanocortin receptor 4; in [19]) was > 64.6 µM (inactive) in each case.

Broadly, the CC50 is the concentration giving 50% cytotoxicity. Turning to `CC12CC[C@H]3[C@@H](CCC4(O)C[C@H](O)CCC34/C=N/NC(=O)c3ccccc3[N+](=O)[O-])C1(O)CCC2C1=CC(=O)OC1` (stereo not given in full), the results for the EC50 in [21], in assay [23] and in [24] were 11.2 µM (active), 8.77 µM (active) and 11.9 µM (active), respectively. Further, the cytotoxic concentration (CC50) in the assay with Vero is 32 µM (active); in [22] it was 12.9 µM (active).
